Measurements from paper PMC9746714, “Aspartate α-decarboxylase a new therapeutic target in the fight against Helicobacter pylori infection” (Frontiers in Microbiology, 2022).
Values after ≈ are worked out from the molar mass of the structure shown.

Experiments:
[1] = biological target: T1, Aspartate α-decarboxylase (ADC) (Helicobacter pylori, UniProt P56065); test: HPLC measurement of β-alanine produced from L-aspartate by purified 6xHis-tagged ADC; assay type: biochemical
T1 construct: gene panD; recombinant 6xHis-tagged ADC, 117 amino acids for ADC plus six for the His-tag (from H. pylori ATCC 43504)
T1 sequence (P56065 1-24): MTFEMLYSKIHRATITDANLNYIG
T1 sequence (P56065 25-117): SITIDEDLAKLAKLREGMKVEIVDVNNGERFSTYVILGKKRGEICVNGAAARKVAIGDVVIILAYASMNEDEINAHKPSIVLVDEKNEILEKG

[2] = system: T2, Helicobacter pylori HPM001; test: microbe, parasite or virus in culture; set-up: MIC against H. pylori by agar dilution and broth microdilution, microaerophilic, visible growth; settings: HPM001, 72 h
T2 construct: HPM001
Method: (§1) The MIC of malonic acid was determined by agar dilution and broth microdilution methods, against H. pylori ATCC 43504 and H. pylori HPM001 strains. Malonic acid (Loba, India) was dissolved in distilled water to the desired concentration, sterilized by a […] syringe filter, and used within 72 h of preparation. Inocula for MIC testing were prepared by suspending colonies in saline to reach an optical density equivalent to 2.0 McFarland turbidity standard (approximately 1×10^7 to 1×10^8 CFU/mL) ([CLSI, 2015]). The culture media used in MIC determination were freshly prepared, according to the manufacturer’s instruction, and supplemented with 1% yeast extract (LabM, United Kingdom) to enhance bacterial growth ([Walsh and Moran, 1997]). MIC determination by broth microdilution method was carried out in 96-well round-bottom micro-titre plates. […] The MIC of malonic acid was determined by agar dilution and broth microdilution methods against H. pylori ATCC 43504 and H. pylori HPM001. […] No significant difference was recorded between the MIC of malonic acid against H. pylori ATCC 43504 and H. pylori HPM001 using either the agar (p = 0.8529) or the broth microdilution methods (p = 0.8784). There was also no significant difference between the mean MIC of malonic acid recorded against the tested strains by both methods (p = 0.54).

[3] = system: T3, Helicobacter pylori ATCC 43504; test: microbe, parasite or virus in culture; set-up: MIC against H. pylori by agar dilution and broth microdilution, microaerophilic, visible growth; settings: ATCC43504, 72 h
T3 construct: ATCC 43504
Method: as §1

[4] = system: T4, Enterococcus faecium ATCC 27270; test: microbe, parasite or virus in culture; set-up: species or system bacterial species; broth microdilution MIC in Mueller-Hinton broth, visible growth; settings: Enterococcus faecium, ATCC27270, 20 h
T4 construct: ATCC 27270
Method: (§2) Assessment of the spectrum of activity of malonic acid The spectrum of activity of malonic acid was assessed by determining malonic acid MIC against eight other pathogenic bacterial species (A. baumannii ATCC 19606, B. cenocepacia ATCC BAA-245, E. coli ATCC 25922, E. faecium ATCC 27270, E. faecalis ATCC 19433, K. pneumoniae ATCC 10031, P. aeruginosa ATCC 27856, and S. aureus ATCC 25923) using broth microdilution method, according to the CLSI guidelines ([CLSI, 2018]). Malonic acid solution was serially diluted in Muller-Hinton broth (100 μL) to get concentrations ranging from 6 to 0.19 mg/mL. The inoculum was prepared to be equivalent to 0.5 McFarland standard (containing approximately 1–2 × 10^8 CFU/mL with most species) and was further diluted 1:10 (to get a concentration of 10^7 CFU/mL). 10 μL of the diluted inoculum was transferred to each well to contain 5 × 10^5 CFU/mL. Plates were incubated at 37°C for 20 h. […] The experiment was carried out in triplicates. Malonic acid MIC was determined against other pathogenic species (A. baumannii ATCC 19606, B. cenocepacia ATCC BAA-245, E. coli ATCC 25922, E. faecium ATCC 27270, E. faecalis ATCC 19433, K. pneumoniae ATCC 10031, P. aeruginosa ATCC 27856, and S. aureus ATCC 25923) by the broth microdilution method.

[5] = system: T5, Escherichia coli ATCC 25922; test: microbe, parasite or virus in culture; set-up: species or system bacterial species; broth microdilution MIC in Mueller-Hinton broth, visible growth; settings: Escherichia coli, ATCC25922, 20 h
T5 construct: ATCC 25922
Method: as §2

[6] = system: T6, Klebsiella pneumoniae ATCC 10031; test: microbe, parasite or virus in culture; set-up: species or system bacterial species; broth microdilution MIC in Mueller-Hinton broth, visible growth; settings: Klebsiella pneumoniae, ATCC10031, 20 h
T6 construct: ATCC 10031
Method: as §2

[7] = system: T7, Staphylococcus aureus ATCC 25923; test: microbe, parasite or virus in culture; set-up: species or system bacterial species; broth microdilution MIC in Mueller-Hinton broth, visible growth; settings: Staphylococcus aureus, ATCC25923, 20 h
T7 construct: ATCC 25923
Method: as §2

[8] = system: T8, Enterococcus faecalis ATCC 19433; test: microbe, parasite or virus in culture; set-up: species or system bacterial species; broth microdilution MIC in Mueller-Hinton broth, visible growth; settings: Enterococcus faecalis, ATCC19433, 20 h
T8 construct: ATCC 19433
Method: as §2

[9] = system: T9, Burkholderia cepacia ATCC BAA-245; test: microbe, parasite or virus in culture; set-up: species or system bacterial species; broth microdilution MIC in Mueller-Hinton broth, visible growth; settings: Burkholderia cepacia, ATCCBAA245, 20 h
T9 construct: ATCC BAA-245
Method: as §2

[10] = system: T10, Acinetobacter baumannii ATCC 19606; test: microbe, parasite or virus in culture; set-up: species or system bacterial species; broth microdilution MIC in Mueller-Hinton broth, visible growth; settings: Acinetobacter baumannii, ATCC19606, 20 h
T10 construct: ATCC 19606
Method: as §2

[11] = system: T11, Pseudomonas aeruginosa ATCC 27856; test: microbe, parasite or virus in culture; set-up: species or system bacterial species; broth microdilution MIC in Mueller-Hinton broth, visible growth; settings: Pseudomonas aeruginosa, ATCC27856, 20 h
T11 construct: ATCC 27856
Method: as §2

Structure (SMILES)	HPLC measurement of β-alanine produced from L-aspartate by purified 6xHis-tagged [1]	MIC [2] [µg/mL]	MIC [3] [µg/mL]	MIC [4] [µg/mL]	MIC [5] [µg/mL]	MIC [6] [µg/mL]	MIC [7] [µg/mL]	MIC [8] [µg/mL]	MIC [9] [µg/mL]	MIC [10] [µg/mL]	MIC [11] [µg/mL]
NC(CC(=O)O)C(=O)O [L-aspartate, 2-amino-butanedioic acid]	assaying β-alanine, the product of the enzymatic action of recombinant H. pylori 6x-His-tagged ADC on aspartate	–	–	–	–	–	–	–	–	–	–
O=C(O)CC(=O)O [MA, propanedioic acid]	–	750 (≈ 7.21 mM)	625 ± 180 (≈ 6.01 mM)	1000 ± 350 (≈ 9.61 mM)	750 (≈ 7.21 mM)	1250 ± 350 (≈ 12 mM)	750 (≈ 7.21 mM)	625 ± 180 (≈ 6.01 mM)	1000 ± 350 (≈ 9.61 mM)	750 (≈ 7.21 mM)	625 ± 180 (≈ 6.01 mM)
